The results in this text go back to patent US20240025922A1, “TETRAHYDROPYRIDO[3,4-d]PYRIMIDINES AS HPK1 INHIBITORS” (Merck Patent GmbH, priority 2022, published 2024).

Assay [1] deals with full-length human HPK1 (MAP4K1) (Homo sapiens (Human), UniProt Q92918). Put plainly: HPK1 Kinase Assay (Biochemical Assay), ADP-Glo. To be noted: GST-HPK1 3.2 nM, 10 μM ATP, MBP substrate, read-out: HPK1 enzymatic IC50. In short, it runs like this: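 GST-tagged full-length human HPK1 was expressed in Sf21 cells and used at 3.2 nM in 50 mM HEPES pH 7.5, 10 mM MgCl2, 2 mM DTT, 12.5 mM O-glycerophosphate, 0.01% BSA and 0.02% Brij-35. It was preincubated 15 min with 10-point compound dilutions, and the reaction was started with a start mix of 10 μM ATP and 3.235 μM MBP. After 120 min, ADP was measured by ADP-Glo luminescence and IC50 derived.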

For assay [2], the target named is HPK1 (SLP76 phosphorylation at Ser376 in Jurkat and EL-4 cells) (Homo sapiens, UniProt Q92918). It is filed as cell-based. In short, it runs like this:
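Jurkat (human) and EL-4 (mouse) cells, endogenous HPK1/SLP76, preincubated 60 min with compounds (10-point dilution), then stimulated with αCD3/αCD28 beads at 37 °C: 15 min for Jurkat, 30 min for EL-4. Ser376 pSLP76 in lysates read by AlphaLISA (Jurkat) or HTRF (EL-4); % inhibition and IC50 fitted.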

The mark [3] stands for this setting: read-out: HPK1 pSLP76 IC50; αCD3/αCD28 Dynabeads stimulated cells, pSLP76 (Ser376) detection.
Where [4] appears, read: αCD3/αCD28 Dynabeads stimulated cells, pSLP76 (Ser376) detection; read-out: HPK1 pSLP76 IC50.

Where two headings read alike, the source gives them in different places.

full-length human HPK1 (MAP4K1), sequence (Q92918 whole entry): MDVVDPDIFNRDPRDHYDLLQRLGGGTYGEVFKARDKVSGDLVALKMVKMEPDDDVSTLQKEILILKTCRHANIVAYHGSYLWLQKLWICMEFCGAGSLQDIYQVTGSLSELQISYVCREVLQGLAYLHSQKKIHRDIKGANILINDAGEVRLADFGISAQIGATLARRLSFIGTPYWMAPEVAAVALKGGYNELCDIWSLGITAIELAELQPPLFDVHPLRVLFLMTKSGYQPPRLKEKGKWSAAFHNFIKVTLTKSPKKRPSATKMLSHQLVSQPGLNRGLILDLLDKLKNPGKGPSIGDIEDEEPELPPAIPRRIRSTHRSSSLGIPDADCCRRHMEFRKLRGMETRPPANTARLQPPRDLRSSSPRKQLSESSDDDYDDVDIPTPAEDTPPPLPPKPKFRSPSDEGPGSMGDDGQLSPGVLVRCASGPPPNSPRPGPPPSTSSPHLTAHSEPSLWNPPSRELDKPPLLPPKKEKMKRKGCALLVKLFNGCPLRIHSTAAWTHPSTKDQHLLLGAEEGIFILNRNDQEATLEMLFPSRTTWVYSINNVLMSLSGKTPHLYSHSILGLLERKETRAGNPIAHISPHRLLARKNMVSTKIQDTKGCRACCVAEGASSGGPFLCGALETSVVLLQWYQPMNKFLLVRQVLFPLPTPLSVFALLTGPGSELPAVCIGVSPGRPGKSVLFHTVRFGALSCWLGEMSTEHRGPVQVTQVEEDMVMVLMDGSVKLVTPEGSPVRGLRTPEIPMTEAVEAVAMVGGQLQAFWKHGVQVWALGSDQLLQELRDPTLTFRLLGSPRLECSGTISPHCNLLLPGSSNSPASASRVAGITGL
HPK1 (SLP76 phosphorylation at Ser376 in Jurkat and EL-4 cells), sequence (Q92918 whole entry, looked up): as the sequence (Q92918 whole entry) above

In the case of `Cc1c(N2CCc3cnc(Nc4cccc(CN5CCOCC5)c4)nc3C2)cnc2c1NCCO2` [Example 60, 7-{8-methyl-1H,2H,3H-pyrido[2,3-b][1,4]oxazin-7-yl}-N-{3-[(morpholin-4-yl)methyl]phenyl}-5H,6H,7H,8H-pyrido[3,4-d]pyrimidin-2-amine], the IC50 in assay [1] is below 100 nM; in assay [2] (setting [3]), 500 to 1000 nM.

Regarding `Cc1c(N2CCc3cnc(Nc4cccc(N5CCN(C)CC5)c4)nc3C2)cnc2c1NCCO2` [Example 61, 7-{8-methyl-1H,2H,3H-pyrido[2,3-b][1,4]oxazin-7-yl}-N-[3-(4-methylpiperazin-1-yl)phenyl]-5H,6H,7H,8H-pyrido[3,4-d]pyrimidin-2-amine], the concentration for half-maximal inhibition (IC50) in assay [1] is below 100 nM; in assay [2] (setting [3]), 500 to 1000 nM.

Regarding `CS(=O)(=O)Cc1ccc(Nc2ncc3c(n2)CN(c2cnc4c(c2Cl)NCCO4)CC3)cc1` [Example 63, 7-{8-chloro-1H,2H,3H-pyrido[2,3-b][1,4]oxazin-7-yl}-N-[4-(methanesulfonylmethyl)phenyl]-5H,6H,7H,8H-pyrido[3,4-d]pyrimidin-2-amine], the IC50 was below 100 nM in assay [1] and below 500 nM in assay [2] (setting [4]).

For `Cc1c(N2CCc3cnc(Nc4cccc(CN5CCN(C)CC5)c4)nc3C2)cnc2c1NCCO2` [Example 66, 7-{8-methyl-1H,2H,3H-pyrido[2,3-b][1,4]oxazin-7-yl}-N-{3-[(4-methylpiperazin-1-yl)methyl]phenyl}-5H,6H,7H,8H-pyrido[3,4-d]pyrimidin-2-amine], the IC50 in assay [1] was below 100 nM; in assay [2] (setting [4]), 500 to 1000 nM.

As for `Cc1c(N2CCc3cnc(Nc4ccnc(C(C)(C)O)c4)nc3C2)cnc2c1NCCO2` [Example 67, 2-{4-[(7-{8-methyl-1H,2H,3H-pyrido[2,3-b][1,4]oxazin-7-yl}-5H,6H,7H,8H-pyrido[3,4-d]pyrimidin-2-yl)amino]pyridin-2-yl}propan-2-ol], the results for the IC50 in assay [1] and in assay [2] (setting [4]) were below 100 nM and 500 to 1000 nM, respectively.

Turning to `Cc1c(N2CCc3cnc(Nc4cc5n(n4)CC(=O)N(C)CC5)cc3C2)cnc2c1NCCO2` [Example 68, 6-methyl-2-[(6-{8-methyl-1H,2H,3H-pyrido[2,3-b][1,4]oxazin-7-yl}-5,6,7,8-tetrahydro-2,6-naphthyridin-3-yl)amino]-4H,5H,6H,7H,8H-pyrazolo[1,5-d][1,4]diazepin-7-one], the values for the IC50 in assay [1] and in assay [2] (setting [4]) were below 100 nM and below 500 nM, respectively.

Turning to `Cc1c(N2CCc3cnc(Nc4ccc(CS(C)(=O)=O)cc4)nc3C2)cnc2c1NCCO2` [Example 69, N-[4-(methanesulfonylmethyl)phenyl]-7-{8-methyl-1H,2H,3H-pyrido[2,3-b][1,4]oxazin-7-yl}-5H,6H,7H,8H-pyrido[3,4-d]pyrimidin-2-amine], the IC50 in assay [1] was below 100 nM; in assay [2] (setting [4]) it was below 500 nM.

On to `COC(=O)Nc1ccc(Nc2ncc3c(n2)CN(c2cnc4c(c2C)NCCO4)CC3)cc1` [Example 71, methyl N-{4-[(7-{8-methyl-1H,2H,3H-pyrido[2,3-b][1,4]oxazin-7-yl}-5H,6H,7H,8H-pyrido[3,4-d]pyrimidin-2-yl)amino]phenyl}carbamate], for which the results for the half-maximal inhibitory concentration (IC50) in assay [1] and in assay [2] (setting [4]) were below 100 nM and below 500 nM, respectively.

Regarding `Cc1c(N2CCc3cnc(Nc4ccnc(N5CCN(C)CC5)c4)nc3C2)cnc2c1NCCO2` [Example 72, N-(7-{8-methyl-1H,2H,3H-pyrido[2,3-b][1,4]oxazin-7-yl}-5H,6H,7H,8H-pyrido[3,4-d]pyrimidin-2-yl)-2-(4-methylpiperazin-1-yl)pyridin-4-amine], the IC50 in assay [1] is below 100 nM; in assay [2] (setting [4]) it was below 500 nM.

With `CC(=O)Nc1ccc(Nc2ncc3c(n2)CN(c2cnc4c(c2C)NCCO4)CC3)cn1` [Example 73, N-(5-((7-(8-methyl-2,3-dihydro-1H-pyrido[2,3-b][1,4]oxazin-7-yl)-5,6,7,8-tetrahydropyrido[3,4-d]pyrimidin-2-yl)amino)pyridin-2-yl)acetamide], the values for the IC50 in assay [1] and in assay [2] (setting [4]) were below 100 nM and 500 to 1000 nM, respectively.

Take `CNC(=O)c1ccc(Nc2ncc3c(n2)CN(c2cnc4c(c2C)NCCO4)CC3)cc1F` [Example 74, 2-fluoro-N-methyl-4-((7-(8-methyl-2,3-dihydro-1H-pyrido[2,3-b][1,4]oxazin-7-yl)-5,6,7,8-tetrahydropyrido[3,4-d]pyrimidin-2-yl)amino)benzamide]: the IC50 in assay [1] was below 100 nM; in assay [2] (setting [4]), below 500 nM.

As to `Cc1c(N2CCc3cnc(Nc4ccnc(C5CCOCC5)c4)nc3C2)cnc2c1NCCO2` [Example 76, 7-(8-methyl-2,3-dihydro-1H-pyrido[2,3-b][1,4]oxazin-7-yl)-N-(2-(tetrahydro-2H-pyran-4-yl)pyridin-4-yl)-5,6,7,8-tetrahydropyrido[3,4-d]pyrimidin-2-amine], the IC50 in assay [1] was below 100 nM; in assay [2] (setting [4]), below 500 nM.

On to `Cc1c(N2CCc3cnc(Nc4ccnc(N5CCOCC5)c4)nc3C2)cnc2c1NCCO2` [Example 77, 7-(8-methyl-2,3-dihydro-1H-pyrido[2,3-b][1,4]oxazin-7-yl)-N-(2-morpholinopyridin-4-yl)-5,6,7,8-tetrahydropyrido[3,4-d]pyrimidin-2-amine], for which the IC50 is below 100 nM in assay [1] and below 500 nM in assay [2] (setting [4]).

Consider `Cc1c(N2CCc3cnc(Nc4cccc(S(C)(=O)=O)c4)nc3C2)cnc2c1NCCO2` [Example 79, 7-(8-methyl-2,3-dihydro-1H-pyrido[2,3-b][1,4]oxazin-7-yl)-N-(3-(methylsulfonyl)phenyl)-5,6,7,8-tetrahydropyrido[3,4-d]pyrimidin-2-amine], for which the half-maximal inhibitory concentration (IC50) in assay [1] is below 100 nM; in assay [2] (setting [4]), below 500 nM.

For `CCc1cc(Nc2ncc3c(n2)CN(c2cnc4c(c2C)NCCO4)CC3)ccc1N1CCC(O)CC1` [Example 80, 1-(2-ethyl-4-((7-(8-methyl-2,3-dihydro-1H-pyrido[2,3-b][1,4]oxazin-7-yl)-5,6,7,8-tetrahydropyrido[3,4-d]pyrimidin-2-yl)amino)phenyl)piperidin-4-ol], the figures for the IC50 in assay [1] and in assay [2] (setting [4]) were below 100 nM and 500 to 1000 nM, respectively.

For `Cc1c(N2CCc3cnc(Nc4ccc5c(c4)CS(=O)(=O)C5)nc3C2)cnc2c1NCCO2` [Example 81, 5-((7-(8-methyl-2,3-dihydro-1H-pyrido[2,3-b][1,4]oxazin-7-yl)-5,6,7,8-tetrahydropyrido[3,4-d]pyrimidin-2-yl)amino)-1,3-dihydrobenzo[c]thiophene 2,2-dioxide], the IC50 in assay [1] is below 100 nM; in assay [2] (setting [4]), below 500 nM.

Turning to `Cc1c(N2CCc3cnc(Nc4cccc(C(C)(C)O)c4)nc3C2)cnc2c1NCCO2` [Example 82, 2-(3-((7-(8-methyl-2,3-dihydro-1H-pyrido[2,3-b][1,4]oxazin-7-yl)-5,6,7,8-tetrahydropyrido[3,4-d]pyrimidin-2-yl)amino)phenyl)propan-2-ol], the half-maximal inhibitory concentration (IC50) was below 100 nM in assay [1] and below 500 nM in assay [2] (setting [4]).

As for `COCCOc1ccc(Nc2ncc3c(n2)CN(c2cnc4c(c2C)NCCO4)CC3)cc1CO` [Example 83, (2-(2-methoxyethoxy)-5-((7-(8-methyl-2,3-dihydro-1H-pyrido[2,3-b][1,4]oxazin-7-yl)-5,6,7,8-tetrahydropyrido[3,4-d]pyrimidin-2-yl)amino)phenyl)methanol], the IC50 in assay [1] is below 100 nM; in assay [2] (setting [4]), 500 to 1000 nM.

`Cc1c(N2CCc3cnc(Nc4ccc5c(c4)CCOC5)nc3C2)cnc2c1NCCO2` [Example 84, N-(isochroman-6-yl)-7-(8-methyl-2,3-dihydro-1H-pyrido[2,3-b][1,4]oxazin-7-yl)-5,6,7,8-tetrahydropyrido[3,4-d]pyrimidin-2-amine]: the values for the IC50 in assay [1] and in assay [2] (setting [4]) were below 100 nM and below 500 nM, respectively.
